According to patent publication US8952150B2, “Prostaglandin transporter inhibitors and uses thereof” (Albert Einstein College of Medicine of Yeshiva University, priority 2009, dated 2015):

Target: rat PGT (Rattus norvegicus (Rat), UniProt Q00910)
Assay: [3H]PGE2 uptake inhibition in MDCK cells stably transfected with rat PGT (percent inhibition and IC50)
Type: cell-based
Conditions: for Inh (% of Ctl) 1 μM: 1 μM compound; for Inh (% of Ctl) 1 μM / Inh (% of Ctl) 5 μM / Inh (% of Ctl) 10 μM / Inh (% of Ctl) 0.1 μM / Inh (% of Ctl) 0.5 μM / Inh (% of Ctl) 2.5 μM: inhibition of [3H]PGE2 uptake; for Inh (% of Ctl) 5 μM: 5 μM compound; for Inh (% of Ctl) 10 μM: 10 μM compound; for Inh (% of Ctl) 0.1 μM: 0.1 μM compound; for Inh (% of Ctl) 0.5 μM: 0.5 μM compound; for Inh (% of Ctl) 2.5 μM: 2.5 μM compound; for IC50: [3H]PGE2 uptake, MDCK cells stably transfected with rat PGT
Method in brief: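 Rat PGT-transfected MDCK cells, on day 4 after seeding, took up [3H]PGE2 in Waymouth buffer at room temperature, with compound (EtOH stock diluted in buffer) added immediately before tracer. Intracellular radioactivity counted after lysis; percent inhibition versus vehicle, IC50 by fitting y=m1−m1*(m0/(m2+m0)).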

| SMILES | Inh (% of Ctl) 1 μM | Inh (% of Ctl) 5 μM | Inh (% of Ctl) 10 μM | Inh (% of Ctl) 0.1 μM | Inh (% of Ctl) 0.5 μM | Inh (% of Ctl) 2.5 μM | IC50 |
| --- | --- | --- | --- | --- | --- | --- | --- |
| O=C(NCCOCCOCCNc1nc(Nc2ccccc2)nc(Nc2ccc(O)cc2)n1)c1ccccc1C(F)(F)F [compound 72] | 19.7 % of Ctl | 66.1 % of Ctl | 75.3 % of Ctl | – | – | – | – |
| N[C@H](Cc1ccccc1)C(=O)NCCOCCNc1nc(Nc2ccc(O)cc2)nc(Nc2ccc(C(=O)NCc3ccccc3)cc2)n1 [compound 133] | 19.4 % of Ctl | – | – | 4.3 % of Ctl | 12.6 % of Ctl | – | – |
| O=C(NCCOCCOCCNc1nc(Nc2ccc(O)cc2)nc(Nc2ccc(C(=O)NCC3CCCCC3)cc2)n1)c1ccccc1 [compound 115] | – | – | – | 54.4 % of Ctl | 76.8 % of Ctl | – | – |
| O=C(NCCOCCOCCNc1nc(Nc2ccc(O)cc2)nc(Nc2ccc(C(=O)N[C@H](C(=O)O)c3ccccc3)cc2)n1)c1ccccc1 [compound 80] | – | 57.2 % of Ctl | – | – | 0.7 % of Ctl | 21.8 % of Ctl | – |
| O=C(NCCOCCOCCNc1nc(Nc2ccc(O)cc2)nc(Nc2ccc(C(=O)NCc3ccccc3F)cc2)n1)c1ccccc1 [compound 110] | – | 93.6 % of Ctl | – | 69.6 % of Ctl | 60.6 % of Ctl | 78.3 % of Ctl | 0.0313 µM |
| CN(C)c1nc(NCCOCCOCCNC(=O)c2ccccc2)nc(Nc2ccc(O)cc2)n1 [compound 9] | – | 18.8 % of Ctl | – | – | 1.3 % of Ctl | – | – |
| COC(=O)COCCOCCNc1nc(Nc2ccccc2)nc(Nc2ccc(O)cc2)n1 [compound 49] | 1.7 % of Ctl | – | 12.5 % of Ctl | – | – | – | – |
| Nc1ccc(Nc2nc(NCCOCCOCCNC(=O)c3ccccc3)nc(Nc3ccc(O)cc3)n2)cc1 [compound 25] | – | 27.7 % of Ctl | – | – | 12.9 % of Ctl | – | – |
| COC(=O)c1cc(Nc2nc(NCCOCCOCCNC(=O)c3ccccc3)nc(Nc3ccc(C(=O)NCc4ccc(F)cc4)cc3)n2)ccc1O [compound 144] | 10.8 % of Ctl | – | – | 3.4 % of Ctl | 5.8 % of Ctl | – | – |
| O=C(NCCOCCOCCNc1nc(Nc2ccc(O)cc2)nc(Nc2ccc(C(=O)NCc3ccc(F)cc3)cc2)n1)c1ccccc1 [compound 99] | – | 89.4 % of Ctl | – | 81.3 % of Ctl | 61.8 % of Ctl | 77.1 % of Ctl | 0.0237 µM |
| O=C(NCCOCCNc1nc(Nc2ccccc2)nc(Nc2ccc(O)cc2)n1)c1ccccc1 [compound 59] | 36.8 % of Ctl | – | 75.8 % of Ctl | – | – | – | 2.46 µM |
| O=C(NCCOCCOCCNc1nc(Nc2ccccc2)nc(Nc2ccc(O)cc2)n1)c1ccc(F)cc1 [compound 30] | 26.1 % of Ctl | – | 78.25 % of Ctl | – | – | – | – |
| O=C(O)C(F)(F)F.[N-]=[N+]=NCCOCCOCCNC(=O)c1ccc(Nc2nc(NCCOCCOCCNC(=O)c3ccccc3)nc(Nc3ccc(O)cc3)n2)cc1 [compound 8] | – | – | – | – | 52.3 % of Ctl | – | 0.224 µM |
| COC(=O)c1ccc(CNC(=O)c2ccc(Nc3nc(NCCOCCOCCNC(=O)c4ccccc4)nc(Nc4ccc(O)cc4)n3)cc2)cc1 [compound 114] | – | – | – | 41.0 % of Ctl | 61.4 % of Ctl | – | – |
| O=C(NCCOCCOCCNc1nc(Nc2ccc(O)cc2)nc(Nc2ccc(C(=O)NCc3cccc(Cl)c3)cc2)n1)c1ccccc1 [compound 87] | – | 90.6 % of Ctl | – | 55.1 % of Ctl | 71.8 % of Ctl | 83.5 % of Ctl | 0.71 µM |
| O=C(NCCOCCOCCNc1nc(Nc2ccc(O)cc2)nc(Nc2ccc(C(=O)NCc3ccccc3)cc2)n1)c1ccccc1 [compound 22] | – | 88.1 % of Ctl | 95.5 % of Ctl | – | 62.4 % of Ctl | – | 0.0427 µM |

| SMILES | Inh (% of Ctl) 1 μM | Inh (% of Ctl) 5 μM | Inh (% of Ctl) 10 μM | Inh (% of Ctl) 0.1 μM | Inh (% of Ctl) 0.5 μM | Inh (% of Ctl) 2.5 μM | IC50 |
| --- | --- | --- | --- | --- | --- | --- | --- |
| O=C(NCCOCCOCCNc1nc(NCCOCCOCCNC(=O)c2ccccc2)nc(Nc2ccc(O)cc2)n1)c1ccccc1 [compound 151] | 8.4 % of Ctl | – | – | – | 0.7 % of Ctl | – | – |
| O=C(O)c1ccc(CNc2nc(NCCOCCOCCNC(=O)c3ccccc3)nc(Nc3ccc(C(=O)NCc4ccccc4)cc3)n2)cc1 [compound 121] | – | – | – | 1.0 % of Ctl | 28.8 % of Ctl | – | – |
| O=C(NCCOCCOCCNc1nc(Nc2ccc(O)cc2)nc(Nc2ccc(N3CCOCC3)cc2)n1)c1ccccc1 [compound 24] | – | 9.2 % of Ctl | – | – | 1.7 % of Ctl | – | – |
| N[C@@H](C(=O)NCCOCCNc1nc(Nc2ccc(O)cc2)nc(Nc2ccc(C(=O)NCc3ccccc3)cc2)n1)c1ccccc1 [compound 132] | 32.4 % of Ctl | – | – | 15.0 % of Ctl | 22.1 % of Ctl | – | – |
| NS(=O)(=O)c1ccc(Nc2nc(NCCOCCOCCNC(=O)c3ccccc3)nc(Nc3ccc(O)cc3)n2)cc1 [compound 46] | 4.1 % of Ctl | – | 32.4 % of Ctl | – | – | – | – |
| O=C(NCCOCCOCCNc1nc(Nc2ccc(O)cc2)nc(Nc2ccc(C(=O)NCc3ccccc3Cl)cc2)n1)c1ccccc1 [compound 106] | – | 93.1 % of Ctl | – | 68.4 % of Ctl | 64.8 % of Ctl | 68.8 % of Ctl | – |
| O=C(NCCOCCOCCNc1nc(Nc2ccc(O)cc2)nc(Nc2ccc(C(=O)NCc3ccc(F)cc3F)cc2)n1)c1ccccc1 [compound 131] | 74.3 % of Ctl | – | – | 22.3 % of Ctl | 47.0 % of Ctl | – | – |
| O=C(CCCCCCNc1nc(Nc2ccccc2)nc(Nc2ccc(O)cc2)n1)Nc1ccccc1 [compound 96] | 8.6 % of Ctl | 23.9 % of Ctl | 51.9 % of Ctl | – | – | – | – |
| O=C(NCCOCCOCCNc1nc(Nc2ccccc2)nc(Nc2ccc(O)cc2)n1)Nc1ccccc1 [compound 42] | 22.8 % of Ctl | – | 57.6 % of Ctl | – | – | – | – |
| COc1ccc(C(=O)NCCOCCOCCNc2nc(Nc3ccccc3)nc(Nc3ccc(O)cc3)n2)cc1 [compound 32] | 29.0 % of Ctl | – | 71.0 % of Ctl | – | – | – | – |
| CCCCCCCC(=O)c1ccc(Nc2nc(NCCOCCOCCNC(=O)c3ccccc3)nc(Nc3ccc(O)cc3)n2)cc1 [compound 76] | – | 70.5 % of Ctl | – | – | 13.5 % of Ctl | 35.9 % of Ctl | – |
| COCCOCCOCCNc1nc(NCCOCCOCCNC(=O)c2ccccc2)nc(Nc2ccc(O)cc2)n1 [compound 11] | – | 29.9 % of Ctl | – | – | 11.4 % of Ctl | – | – |
| NCCOCCOCCNc1nc(Nc2ccccc2)nc(Nc2ccc(O)cc2)n1 [compound 45] | 5.0 % of Ctl | – | 12.9 % of Ctl | – | – | – | – |
| CC(=O)NCCOCCNc1nc(Nc2ccc(O)cc2)nc(Nc2ccc(C(=O)NCc3ccccc3)cc2)n1 [compound 140] | 10.9 % of Ctl | – | – | 11.5 % of Ctl | 4.5 % of Ctl | – | – |
| O=C(NCCOCCOCCNc1nc(Nc2ccccc2)nc(Nc2ccc(O)cc2)n1)c1ccc(Br)cc1 [compound 31] | 12.2 % of Ctl | – | 69.2 % of Ctl | – | – | – | – |
